Test results: patent US10646572B2, “Pharmaceutical compositions with enhanced stability” (Foresee Pharmaceuticals Co., Ltd., priority 2006, dated 2020)
Structures can show the parent of a compound that is named as a salt. Where two headings read alike, the source gives them in different places.

Columns and labels:
[1] = Molecular weight of PLGA in PLGA/DMSO injectable compositions (GPC); type: physicochemical; conditions: DMSO, 4° C., after 16 months
Description: (§1) The injectable compositions were filled into 1.2 mlL polypropylene syringes with luer-lock tips. […] The injectable composition was sampled at pre-defined time points.

[2] = type: physicochemical
Description: as §1

[3] = NMP
Protocol: Poly(DL-lactide-co-glycolide) (PLGA) of an 85/15 ratio of lactide to glycolide (DLPLG85/15, IV: 0.28) with a lauryl ester end group was dissolved in N- methyl-2-pyrrolidone (NMP) to give a 50% solution by weight. The leuprolide salts were mixed with the PLGA solution in NMP to give a uniform injectable composition at ratios shown in the Table 1. The injectable compositions were filled into 1.2 mL polypropylene syringes with luer-lock tips. Then the pre-filled syringes were sealed using luer-lock caps. The capped syringes were packaged in a container and sealed in a plastic bag under vacuum and then stored at 4° C. and room temperature (˜22° C.) for up to 18 months. The injectable composition was sampled at 24 h, 1, 2, 3, 6, 12, and 18 month time points. […] Molecular weight of the polymer was determined by gel permeation chromatography (GPC) using polystyrene standards with known molecular weights.

[4] = Effect of Vitamin E TPGS on in vitro release of leuprolide (Example 11); type: physicochemical; conditions: LAHCl 15% in PLA 100DLPL/NMP, PBS pH 7.4, 37° C., FIG. 4
Protocol: The polymer vehicle solutions with and without excipients were prepared as following: PLA 100DLPL (0.26 IV, Lakeshore, Ala.) with a lauryl ester end group and Vitamin E TPGS were dissolved in NMP at suitable amount according to the Table 7. Then suitable amount of leuprolide hydrochloride (LAHCl) was mixed with the polymer solutions at 15% by weight. The formulations were thoroughly mixed to obtain uniform formulations.
(§2) An aliquot of the formulation suspension (about 100 mg) was injected into in 3 mL phosphate buffer saline solution at pH 7.4 with 0.1% sodium azide at 37° C. The receiving fluid was replaced at selected time points with fresh buffer solution, and the removed buffer solution diluted 10-fold with PBS at pH 7.4 was analyzed for drug concentration by HPLC. The amount released at each time point was calculated.

[5] = cited from earlier work
in vivo = test: in vivo; design: species or system rats; conditions: rat, sc
Protocol: Each formulation was then injected into the rats subcutaneously at a volume of about 100 μL with 6 animals per group. The serum samples were collected from each animal at 3 hour, 1, 3, 7, 14, 28, 42, 56, and 70 days post injection. The serum samples were analyzed for leuprolide concentration by ELISA using the kits available from Peninsula Laboratories Inc. The leuprolide remaining in the implants at various times was analyzed by HPLC.

[6] = In vitro release of leuprolide from injectable polymeric formulations (Example 10); type: physicochemical; conditions: 6% by weight in PLGA/NMP, PBS pH 7.4, 37° C., FIG. 3
Protocol: Three polymer vehicle solutions were prepared as following: PLG 85/15 (0.28 IV) with a lauryl ester end group was dissolved in NMP at 50% and 55% by weight, and RG503 (0.42 IV) with a carboxylic acid end group was dissolved in NMP at 50% by weight. Then suitable amount of leuprolide hydrochloride (LAHCl) and leuprolide mesylate (LAMS) were mixed with the polymer solutions at 6% by weight each. The formulations were thoroughly mixed to obtain uniform formulations.
as §2, with “2-fold” for “10-fold”, “phosphate buffer” for “PBS”

For CCNC(=O)[C@@H]1CCCN1C(=O)[C@H](CCCNC(=N)N)NC(=O)[C@H](CC(C)C)NC(=O)[C@@H](CC(C)C)NC(=O)[C@H](Cc1ccc(O)cc1)NC(=O)[C@H](CO)NC(=O)[C@H](Cc1c[nH]c2ccccc12)NC(=O)[C@H](Cc1c[nH]cn1)NC(=O)[C@@H]1CCC(=O)N1 [leuprolide acetate, Leuprolide acetate, reference compound], the “decrease of molecular weight of PLGA comparing to blank control” value [1] was “about 40%”, the leuprolide degraded [2] was “Up to 20%” and the “decrease of molecular weight of PLGA comparing to blank control” value ([3]; 4° C., after 6 months) was “more than 10%”.

For Vitamin E TPGS, the “effect on initial burst” value [4] was “did not affect the initial burst” and the “effect on release rate of leuprolide at later stages” value [4] was “seemed to reduce the release rate of leuprolide at later stages”.

In the case of C[C@@H](O)[C@@H]1NC(=O)[C@H](CCCCN)NC(=O)[C@@H](Cc2c[nH]c3ccccc23)NC(=O)[C@H](Cc2ccccc2)NC(=O)[C@@H](NC(=O)[C@H](N)Cc2ccccc2)CSSC[C@@H](C(=O)N[C@H](CO)[C@@H](C)O)NC1=O [octreotide acetate], the octreotide acylated ([5]; combined with polylactide-co-glicolide solution in NMP, within 5 hours) is listed as “more than 40%” and the “molecular weight of the polymer” value ([5]; polylactide-co-glicolide solution in NMP, within the same time period (5 hours)) is listed as “decreased significantly”.

For CCNC(=O)[C@@H]1CCCN1C(=O)[C@H](CCCNC(=N)N)NC(=O)[C@H](CC(C)C)NC(=O)[C@@H](CC(C)C)NC(=O)[C@H](Cc1ccc(O)cc1)NC(=O)[C@H](CO)NC(=O)[C@H](Cc1c[nH]c2ccccc12)NC(=O)[C@H](Cc1c[nH]cn1)NC(=O)[C@@H]1CCC(=O)N1 [leuprolide mesylate, Leuprolide Mesylate], the “Cmax (serum leuprolide)” value (in vivo) was 370.6 ng/mL, the “time at which Cmax was reached” value (in vivo) was 3 h and the leuprolide degraded [2] was “less than 5%”.

In the case of CCNC(=O)[C@@H]1CCCN1C(=O)[C@H](CCCNC(=N)N)NC(=O)[C@H](CC(C)C)NC(=O)[C@@H](CC(C)C)NC(=O)[C@H](Cc1ccc(O)cc1)NC(=O)[C@H](CO)NC(=O)[C@H](Cc1c[nH]c2ccccc12)NC(=O)[C@H](Cc1c[nH]cn1)NC(=O)[C@@H]1CCC(=O)N1 [leuprolide hydrochloride, Leuprolide Hydrochloride], the “molecular weight of PLGA versus control” value [1] is reported as “comparable to that of the control”, the “time at which Cmax was reached” value (in vivo) is reported as 3 h and the Cmax (in vivo; Cmax (serum leuprolide)) is reported as 662 ng/mL. The leuprolide degraded [2] was “less than 5%”, the “molecular weight of PLGA versus blank control” value ([3]; both 4° C. and RT, after 12 months) was “the same as that of the blank control” and the “leuprolide release, LAHCl versus LAMS” value [6] was “no significant difference”.
